Test results as given in patent US11584735B2, “Solid forms of a plasma kallikrein inhibitor and salts thereof” (KALVISTA PHARMACEUTICALS LIMITED, priority 2017, dated 2023).
One block for each compound: values may come before it.

What was measured:
[1] = tested on: diabetic rats; details: cited from earlier work
[2] = tested on: rats; details: systemic administration; cited from earlier work
[3] = target: Human FXIa (Homo sapiens (Human), UniProt P03951); experiment: Determination of the % inhibition / IC50 for FXIa; type: biochemical; details: 25° C., substrate Z-Gly-Pro-Arg-AFC
[4] = target: trypsin; experiment: Enzyme selectivity: trypsin; type: biochemical, human; details: substrate at Km concentration
Protocol: (§1) Human serine protease enzymes plasmin, thrombin and trypsin were assayed for enzymatic activity using an appropriate fluorogenic substrate. Protease activity was measured by monitoring the accumulation of liberated fluorescence from the substrate over 5 minutes. The linear rate of fluorescence increase per minute was expressed as percentage (%) activity. The Km for the cleavage of each substrate was determined by standard transformation of the Michaelis-Menten equation.

[5] = Metabolic stability in human liver microsomes; type: in vitro ADME; details: human liver microsomes 1 mg/mL, 5 μM test compound, 37° C.
Protocol: The metabolic stability was determined using standard published methods (Obach RS (1999) Drug Metab Dispos 27(11); 1350-135). Human liver microsomes (1 mg/mL; Corning) were incubated with 5 μM test compound at 37° C. on a shaking platform (150 rpm). Samples were taken at 0 and 60 min. The percentage test compound remaining at 60 minutes was determined by ratio of LCMS peak areas.

[6] = target: plasmin (Homo sapiens (Human), UniProt P00747); details: read-out: IC50 Plasmin; substrate at Km concentration
Protocol: as §1

[7] = target: thrombin (Homo sapiens (Human), UniProt P00734); details: read-out: IC50 Thrombin; substrate at Km concentration
Protocol: as §1

[8] = target: Human KLK1 (Homo sapiens (Human), UniProt P06870); experiment: Determination of the IC50 for KLK1; type: biochemical; details: 25° C., substrate H-DVal-Leu-Arg-AFC
Protocol: KLK1 inhibitory activity in vitro was determined using standard published methods (see e.g. Johansen et al., Int. J. Tiss. Reac. 1986, 8, 185; Shori et al., Biochem. Pharmacol., 1992, 43, 1209; Sturzebecher et al., Biol. Chem. Hoppe-Seyler, 1992, 373, 1025). Human KLK1 (Callbiochem) was incubated at 25° C. with the fluorogenic substrate H-DVal-Leu-Arg-AFC and various concentrations of the test compound. Residual enzyme activity (initial rate of reaction) was determined by measuring the change in optical absorbance at 410 nm and the IC50 value for the test compound was determined.

[9] = target: Human Factor XIIa (Homo sapiens (Human), UniProt P00748); experiment: Determination of the IC50 for FXIIa; type: biochemical; details: 25° C., substrate H-DPro-Phe-Arg-AFC
Protocol: Factor XIIa inhibitory activity in vitro was determined using standard published methods (see e.g. Shori et al., Biochem. Pharmacol., 1992, 43, 1209; Baeriswyl et al., ACS Chem. Biol., 2015, 10 (8) 1861; Bouckaert et al., European Journal of Medicinal Chemistry 110 (2016) 181). Human Factor XIIa (Enzyme Research Laboratories) was incubated at 25° C. with the fluorogenic substrate H-DPro-Phe-Arg-AFC and various concentrations of the test compound. Residual enzyme activity (initial rate of reaction) was determined by measuring the […] and the IC50 value for the test compound was determined.

[10] = In vitro permeability, Caco-2 model; type: in vitro ADME; details: human, apical to basolateral, 37° C.
Protocol: In vitro permeability was determined using the Caco-2 model for oral absorption. The methodology was adapted from standard published methods (Wang Z, Hop C. E., Leung K. H. and Pang J. (2000) J Mass Spectrom 35(1); 71-76). The Caco-2 monolayers were established in a Biocoat™ HTS fibrillar collagen 24 well multiwell insert system (1.0 μm, PET membrane, Corning 354803) in which 200,000 cells were seeded into each insert and maintained over 3 days before being utilised in the permeability assay. For the assay, 50 μM test compound is added to the apical side of the inserts and incubated for 1 hour at 37° C. on a shaking platform (120 rpm). Apical to basolateral transport was determined by measuring the test article in both compartments by LCMS following the 1 hour incubation. The integrity of the Caco-2 monolayers was confirmed by two methods, (i) comparison of pre- and post-experiment transepithelial electrical resistance (TEER) and, (ii) assessment of Lucifer Yellow flux.

[11] = tested on: LPS-induced disseminated intravascular coagulation; details: cited from earlier work
[12] = tested on: blood; details: contacting blood with the inhibitor; cited from earlier work
[13] = tested on: intrinsic pathway of coagulation; details: in vitro; cited from earlier work

Chain of Human KLK1 (P06870 25-262): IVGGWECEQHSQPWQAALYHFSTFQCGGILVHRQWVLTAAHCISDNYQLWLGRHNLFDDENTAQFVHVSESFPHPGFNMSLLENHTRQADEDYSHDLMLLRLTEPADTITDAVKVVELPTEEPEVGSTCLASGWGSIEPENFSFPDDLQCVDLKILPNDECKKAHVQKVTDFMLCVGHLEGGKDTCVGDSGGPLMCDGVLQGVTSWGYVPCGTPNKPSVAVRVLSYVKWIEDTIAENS
Chain of Human Factor XIIa (P00748 373-615): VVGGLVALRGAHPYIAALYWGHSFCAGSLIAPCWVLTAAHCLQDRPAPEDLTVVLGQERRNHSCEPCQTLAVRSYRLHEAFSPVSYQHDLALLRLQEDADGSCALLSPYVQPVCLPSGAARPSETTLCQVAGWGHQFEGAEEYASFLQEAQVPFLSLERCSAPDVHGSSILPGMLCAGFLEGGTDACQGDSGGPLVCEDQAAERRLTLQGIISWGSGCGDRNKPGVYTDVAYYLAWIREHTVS
Chain of Human FXIa (P03951 388-625): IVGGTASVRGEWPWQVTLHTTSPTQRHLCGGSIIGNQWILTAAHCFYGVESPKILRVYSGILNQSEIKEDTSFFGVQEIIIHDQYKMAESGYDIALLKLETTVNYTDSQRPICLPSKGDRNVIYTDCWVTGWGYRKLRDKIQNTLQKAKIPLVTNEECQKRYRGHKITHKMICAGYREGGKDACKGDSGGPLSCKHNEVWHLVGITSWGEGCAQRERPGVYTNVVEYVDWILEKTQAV
Chain of Human FXIa (P03951 19-387 partner): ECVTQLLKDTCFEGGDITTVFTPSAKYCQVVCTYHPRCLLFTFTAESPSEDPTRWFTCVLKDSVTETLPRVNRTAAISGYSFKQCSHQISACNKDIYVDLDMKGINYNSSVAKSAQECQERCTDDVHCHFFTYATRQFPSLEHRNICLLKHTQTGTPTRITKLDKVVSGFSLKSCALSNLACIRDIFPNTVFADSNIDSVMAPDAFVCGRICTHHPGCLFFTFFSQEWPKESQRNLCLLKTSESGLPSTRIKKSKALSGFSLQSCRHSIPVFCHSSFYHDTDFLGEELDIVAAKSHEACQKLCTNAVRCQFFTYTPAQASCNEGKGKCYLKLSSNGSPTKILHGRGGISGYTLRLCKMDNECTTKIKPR
Chain of plasmin (P00747 581-810): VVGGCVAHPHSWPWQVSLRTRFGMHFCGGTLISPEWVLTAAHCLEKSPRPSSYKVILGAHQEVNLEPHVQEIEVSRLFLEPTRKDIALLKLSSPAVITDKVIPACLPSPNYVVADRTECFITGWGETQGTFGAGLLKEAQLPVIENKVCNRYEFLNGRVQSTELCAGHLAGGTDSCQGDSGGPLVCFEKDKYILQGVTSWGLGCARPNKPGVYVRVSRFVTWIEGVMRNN
Chain of plasmin (P00747 97-580 partner): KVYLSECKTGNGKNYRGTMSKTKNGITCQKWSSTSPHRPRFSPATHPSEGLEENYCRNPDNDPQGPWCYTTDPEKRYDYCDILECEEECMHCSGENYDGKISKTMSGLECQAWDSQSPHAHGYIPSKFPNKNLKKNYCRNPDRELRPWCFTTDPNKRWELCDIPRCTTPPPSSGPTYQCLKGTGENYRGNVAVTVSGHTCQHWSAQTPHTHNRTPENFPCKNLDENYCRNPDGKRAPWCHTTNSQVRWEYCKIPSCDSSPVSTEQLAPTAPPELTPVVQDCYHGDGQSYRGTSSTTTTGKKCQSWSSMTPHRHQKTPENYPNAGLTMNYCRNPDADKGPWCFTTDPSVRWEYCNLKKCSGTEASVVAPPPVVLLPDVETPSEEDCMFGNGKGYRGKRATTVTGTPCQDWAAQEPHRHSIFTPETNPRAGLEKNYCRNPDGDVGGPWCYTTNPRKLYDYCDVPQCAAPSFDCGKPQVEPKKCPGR

Compound: N=C(N)c1ccc(CNC(=O)c2cnn(Cc3ccccc3)c2)cc1 [ASP-440]
Effect on retinal vascular permeability and retinal blood flow abnormalities [1]: ameliorated both retinal vascular permeability and retinal blood flow abnormalities | Hematoma expansion [2]: reduced hematoma expansion

IC50 [3]: > 40 µM | IC50 [4]: > 40 µM | % remaining at 60 minutes [5]: 25% | IC50 [6]: > 40 µM | IC50 [7]: > 40 µM | IC50 [8]: > 40 µM | IC50 [9]: > 40 µM
Compound: COCc1nn(Cc2ccc(Cn3cc(F)ccc3=O)cc2)cc1C(=O)NCc1nccc(OC)c1F [Compound of Formula A, 1-({4-[(5-fluoro-2-oxopyridin-1-yl)methyl]phenyl}methyl)-N-[(3-fluoro-4-methoxypyridin-2-yl)methyl]-3-(methoxymethyl)pyrazole-4-carboxamide]

IC50 [3]: > 40 µM | Papp at 1 h, 50 μM [10]: 9 ×10⁻⁶ cm/s | IC50 [8]: > 40 µM | IC50 [9]: > 40 µM
Compound: COCc1nn(Cc2ccc(Cn3ccccc3=O)cc2)cc1C(=O)NCc1nccc(OC)c1F [Example 41 of WO2016/083820, N-[(3-fluoro-4-methoxypyridin-2-yl)methyl]-3-(methoxymethyl)-1-({4-[(2-oxopyridin-1-yl)methyl]phenyl}methyl)pyrazole-4-carboxamide]

Compound: Cl.NCC1CCC(C(=O)N[C@@H](Cc2ccccc2)C(=O)Nc2ccc(CC(=O)O)cc2)CC1 (stereo partly shown) [PKSI-527]
Effect on platelet count, fibrinogen level and FDP level [11]: significantly suppressed the decrease in platelet count and fibrinogen level as well as the increase in FDP level

Compound: Ecallantide
Activated clotting time (ACT) [12]: increase in activated clotting time | Contact activated induced coagulation [13]: delay contact activated induced coagulation
